Test results from patent publication US20180346473A1, “FUSED BICYCLIC COMPOUNDS” (Akarna Therapeutics, Ltd., priority 2017, published 2018).

target: T1, FXR (Homo sapiens, UniProt Q96RI1); assay: FXR Agonist Assay (Gaussia luciferase reporter in cells); assay type: cell-based; conditions: 20 hours incubation at 37° C., Gaussia luciferase luminescence, normalized to DMSO control
T1 sequence (Q96RI1 1-486): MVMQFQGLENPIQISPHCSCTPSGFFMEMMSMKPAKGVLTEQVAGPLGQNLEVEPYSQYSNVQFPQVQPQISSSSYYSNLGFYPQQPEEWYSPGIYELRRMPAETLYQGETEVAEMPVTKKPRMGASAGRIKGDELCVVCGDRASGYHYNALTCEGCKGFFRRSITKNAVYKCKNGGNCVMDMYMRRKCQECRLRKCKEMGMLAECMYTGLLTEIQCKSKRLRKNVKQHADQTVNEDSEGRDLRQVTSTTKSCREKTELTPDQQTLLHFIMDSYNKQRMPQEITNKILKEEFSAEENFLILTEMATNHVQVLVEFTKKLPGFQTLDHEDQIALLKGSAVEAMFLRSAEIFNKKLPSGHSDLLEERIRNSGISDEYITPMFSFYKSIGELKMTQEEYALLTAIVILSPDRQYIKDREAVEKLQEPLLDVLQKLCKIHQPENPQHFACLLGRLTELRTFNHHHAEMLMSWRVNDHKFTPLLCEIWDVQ
Method: Starting from 3.33 mM of compound in DMSO solution, a 10-point 3-fold serial dilution was made by diluting 5 μL of compound into 10 μL of DMSO. The serially diluted compound was then diluted 1:33 into DMEM. This medium was then diluted ten-fold into the culture medium with the cells (10 μL/well). All concentration points are assayed in duplicate. Plates were incubated at 37° C. for 20 hours. After the incubation, 20 μL of culture medium were removed from each well and mixed with 50 μL of assay solution (Pierce™ Gaussia Luciferase Flash Assay Kit). The luminescence was measured immediately after addition of the Luc substrate with an Envision microplate reader. The raw data was uploaded to CDD and dose-response curves were generated using the Levenberg-Marquardt algorithm integrated into CDD. A negative control DMSO is included on each plate and used to normalize the data with the CDD built-in normalization function.

Row | Compound | EC50 [µM]
1 | CC(C)NC(=O)C1=CN(C(=O)c2ccc(F)c(F)c2)CC(C)(C)c2c(C(F)(F)F)n[nH]c21 [Compound 1, (E)-6-(3,4-difluorobenzoyl)-N-isopropyl-4,4-dimethyl-3-(trifluoromethyl)-1,4,5,6-tetrahydropyrazolo[3,4-d]azepine-8-carboxamide] | < 0.5
2 | CC(C)OC(=O)C1=CN(C(=O)c2ccc(OCCN3CCOCC3)cc2)CC(C)(C)c2c(C(F)(F)F)n[nH]c21 [Compound 2, (E)-isopropyl 4,4-dimethyl-6-(4-(2-morpholinoethoxy)benzoyl)-3-(trifluoromethyl)-1,4,5,6-tetrahydropyrazolo[3,4-d]azepine-8-carboxylate] | < 0.5
3 | CC(C)OC(=O)C1=CN(C(=O)c2ccc(OCCN3CCOCC3)c(F)c2)CC(C)(C)c2c(C(F)(F)F)n[nH]c21 [Compound 3, (E)-isopropyl 6-(3-fluoro-4-(2-morpholinoethoxy)benzoyl)-4,4-dimethyl-3-(trifluoromethyl)-1,4,5,6-tetrahydropyrazolo[3,4-d]azepine-8-carboxylate] | < 0.5
